One test has as its system CV-1. The test is described as follows: Cytotoxicity against african green monkey CV1 cells after 72 hrs by MTT assay. It is filed as cell-based. The settings on record: Chlorocebus aethiops, CV-1, 72 h. For orientation: Tetrazolium dyes change colour on reduction, which living cells bring about.
A short description of test [1]: Cytotoxicity against human MiaPaCa cells after 72 hrs by MTT assay. It is filed as functional, cell-based. The settings on record: MIA PaCa-2, 72 h.
In a further test the test system is PANC-1. The test is described as follows: Cytotoxicity against human PANC1 cells after 72 hrs by MTT assay. It is filed as functional, cell-based. The settings on record: PANC-1, 72 h.
For a further test, the system named is ACHN. The test is described as follows: Cytotoxicity against human ACHN cells after 72 hrs by MTT assay. It is filed as functional, cell-based.
Another test deals with A498. The test is described as follows: Cytotoxicity against human A498 cells after 72 hrs by MTT assay. The settings on record: A498, 72 h. The format is functional, cell-based.

For orientation: IC50 means the midpoint of a concentration-inhibition curve.

Regarding `CC(=O)OC[C@]12CCCC(C)(C)[C@@H]1CC[C@]1(C)[C@@H]2C[C@@H](OC(C)=O)[C@]2(C)c3cocc3CC[C@@H]12`, the IC50 in the test with CV-1 was above 50 µM; in test [1], 31.1 µM; in the test on PANC-1, 48 µM; in the test on ACHN, above 50 µM; in the test with A498, above 50 µM.
On to `CC1(C)CCC[C@@]2(CO)[C@H]1CC[C@]1(C)[C@@H]2CC[C@]2(C)C3=C(C(=O)O[C@H]3O)C(O)C[C@@H]12` (mixture of isomers), for which the 50% inhibitory concentration (IC50) in the test on CV-1 is above 50 µM; in test [1], above 50 µM; in the test with PANC-1, above 50 µM; in the test with ACHN, above 50 µM; in the test with A498, 40.7 µM.
For `CO[C@H]1C[C@@H]2CC[C@@H](C)[C@@](O)(O2)C(=O)C(=O)N2CCCC[C@H]2C(=O)O[C@H]([C@H](C)C[C@@H]2CC[C@@H](OC(=O)C(C)(CO)CO)[C@H](OC)C2)CC(=O)[C@H](C)/C=C(\C)[C@@H](O)[C@@H](OC)C(=O)[C@H](C)C[C@H](C)/C=C/C=C/C=C/1C` [TEMSIROLIMUS], in the test on A498, the half-inhibitory concentration (IC50) was found to be 34.3 µM.
In the case of `Nc1ccn([C@@H]2O[C@H](CO)[C@@H](O)C2(F)F)c(=O)n1` [GEMCITABINE], the IC50 in the test on CV-1 was 21.9 µM; in test [1] it was 17.1 µM; in the test with PANC-1, above 50 µM.
As to `CC1(C)CCC[C@]2(C)[C@H]3CC[C@@]4(C)[C@@H](CC=C(C=O)[C@@H]4C=O)[C@]3(C)CC[C@@H]12` [12-DEACETOXYSCALARADIAL], the IC50 in the test with CV-1 is 45 µM; in test [1] it was 45.9 µM; with PANC-1, 38.8 µM; in the test with ACHN it was above 50 µM; in the test with A498, above 50 µM.
On to `CC(=O)O[C@@H]1OC=C2[C@@H](OC(C)=O)C[C@@H]3[C@](C)(CC[C@H]4[C@@]3(C)CC[C@H]3C(C)(C)CCC[C@@]34CO)[C@H]21`, for which the half-maximal inhibitory concentration (IC50) in the test with CV-1 is 0.8 µM; in test [1], 0.7 µM; in the test with PANC-1, 0.4 µM; in the test with ACHN, 0.4 µM; with A498, 0.7 µM.
As to `CC(=O)OC[C@]12CCCC(C)(C)[C@@H]1CC[C@@]1(C)[C@@H]3C[C@H](OC(C)=O)C4=CO[C@@H](OC(C)=O)[C@@H]4[C@@]3(C)CC[C@@H]12`, the IC50 in the test with CV-1 is 3 µM; in test [1], 2.8 µM; in the test on PANC-1 it was 1.6 µM; in the test with ACHN, 5.8 µM; in the test with A498, 5.7 µM.
For the compound `CC1(C)CCC[C@@]2(CO)[C@H]1CC[C@@]1(C)[C@@H]3CC=C(C=O)[C@H](C=O)[C@@]3(C)CC[C@@H]12` [12-DEACETOXY-23-HYDROXYSCALARADIAL], the half-maximal inhibitory concentration (IC50) in the test on CV-1 was above 50 µM; in test [1] it was 31.1 µM; in the test with PANC-1, 34.3 µM; in the test with ACHN it was above 50 µM; with A498 it was above 50 µM.
In the case of `CCN(CC)CCNC(=O)c1c(C)[nH]c(/C=C2\C(=O)Nc3ccc(F)cc32)c1C` [SUNITINIB], the 50% inhibitory concentration (IC50) in the test with ACHN is 5.7 µM; in the test with A498 it was 4.3 µM.
For `CC(=O)OC[C@]12CCCC(C)(C)[C@@H]1CC[C@@]1(C)[C@@H]3CC=C4C(=O)O[C@@H](O)[C@@H]4[C@@]3(C)CC[C@@H]12`, the IC50 came out at 2.1 µM in the test on CV-1; 1.2 µM in test [1]; 1.3 µM in the test with PANC-1; 1.3 µM in the test with ACHN; 1.3 µM with A498.
